According to ChEMBL document CHEMBL4000185, “Pyrimidine-Based Inhibitors of Dynamin I GTPase Activity: Competitive Inhibition at the Pleckstrin Homology Domain” (J Med Chem, 2017):

Experiments:
[1] = target: 5-hydroxytryptamine receptor 2B (Homo sapiens, UniProt P41595); test: Displacement of [125I](+/-)DOI from human recombinant 5-HT2B receptor expressed in CHO cells after 60 mins by scintillation counting; type: cell-based
[2] = system: MCF7; test: Growth inhibition of human MCF7 cells assessed as cell death at 25 uM after 72 hrs by MTT assay relative to control; type: functional; set-up: scale not given: the % may be the effect or the level left
[3] = Growth inhibition of human U87 cells assessed as cell death at 25 uM after 72 hrs by MTT assay relative to control; type: functional, U-87MG ATCC; set-up: scale not given: the % may be the effect or the level left
[4] = system: NCI-H460; test: Growth inhibition of human NCI-H460 cells assessed as cell death at 25 uM after 72 hrs by MTT assay relative to control; type: functional; set-up: scale not given: the % may be the effect or the level left
[5] = system: A2780; test: Growth inhibition of human A2780 cells assessed as cell death at 25 uM after 72 hrs by MTT assay relative to control; type: functional; set-up: scale not given: the % may be the effect or the level left
[6] = system: DU-145; test: Growth inhibition of human DU145 cells assessed as cell death at 25 uM after 72 hrs by MTT assay relative to control; type: functional; set-up: scale not given: the % may be the effect or the level left
[7] = system: A-431; test: Growth inhibition of human A431 cells assessed as cell death at 25 uM after 72 hrs by MTT assay relative to control; type: functional; set-up: scale not given: the % may be the effect or the level left
[8] = system: SW480; test: Growth inhibition of human SW480 cells assessed as cell death at 25 uM after 72 hrs by MTT assay relative to control; type: functional; set-up: scale not given: the % may be the effect or the level left
[9] = system: MIA PaCa-2; test: Growth inhibition of human MIAPaCa2 cells assessed as cell death at 25 uM after 72 hrs by MTT assay relative to control; type: functional; set-up: scale not given: the % may be the effect or the level left
[10] = system: BE(2)-C; test: Growth inhibition of human BE(2)-C cells assessed as cell death at 25 uM after 72 hrs by MTT assay relative to control; type: functional; set-up: scale not given: the % may be the effect or the level left
[11] = Growth inhibition of human SJ-G2 cells assessed as cell death at 25 uM after 72 hrs by MTT assay relative to control; type: functional; set-up: scale not given: the % may be the effect or the level left
[12] = system: HT-29; test: Growth inhibition of human HT-29 cells assessed as cell death at 25 uM after 72 hrs by MTT assay relative to control; type: functional; set-up: scale not given: the % may be the effect or the level left
[13] = Inhibition of phosphatidyl serine liposome-stimulated sheep brain dynamin 1 GTPase activity assessed as reduction orthophosphate release using GTP as substrate after 30 mins by malachite green reagent based colorimetric assay; set-up: species or system Ovis aries; conditions: read-out: IC50
[14] = Growth inhibition of human SMA cells assessed as cell death at 25 uM after 72 hrs by MTT assay relative to control; type: functional; set-up: scale not given: the % may be the effect or the level left

5-hydroxytryptamine receptor 2B, sequence (P41595 whole entry): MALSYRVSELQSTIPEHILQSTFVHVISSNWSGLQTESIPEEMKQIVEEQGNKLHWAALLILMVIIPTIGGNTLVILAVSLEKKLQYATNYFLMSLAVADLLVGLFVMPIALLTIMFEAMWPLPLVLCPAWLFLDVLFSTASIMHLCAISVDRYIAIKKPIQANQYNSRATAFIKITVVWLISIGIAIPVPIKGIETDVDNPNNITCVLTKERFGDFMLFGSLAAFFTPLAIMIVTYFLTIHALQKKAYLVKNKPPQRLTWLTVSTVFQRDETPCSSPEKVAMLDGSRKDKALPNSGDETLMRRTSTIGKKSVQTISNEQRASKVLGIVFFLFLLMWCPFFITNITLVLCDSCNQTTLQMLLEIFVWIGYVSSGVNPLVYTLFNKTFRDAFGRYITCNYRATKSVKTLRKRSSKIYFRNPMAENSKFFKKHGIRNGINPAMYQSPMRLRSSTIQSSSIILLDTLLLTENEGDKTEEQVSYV

Structure (SMILES)	Ki [1]	Activity [2]	Activity [3]	Activity [4]	Activity [5]	Activity [6]	Activity [7]	Activity [8]	Activity [9]	Activity [10]	Activity [11]	Activity [12]	IC50 [13]	Activity [14]
COc1cc(CC(C)N)c(OC)cc1I (racemic)	1.6 nM	–	–	–	–	–	–	–	–	–	–	–	–	–
CCCCCCCCCCCCNc1nc(C)cc(Cl)n1	–	53%	21%	21%	63%	42%	25%	37%	42%	46%	25%	56%	> 300000 nM	65%
